System: 653999-131-R-J2-PDC complex spheroids, growth inhibition
Experiment: Anticancer human tumor 653999-131-R-J2-PDC patient-derived lung adenocarcinoma cell line growth inhibition [RAS]
Details: for IC50: curve of first compound; for viability, T/C: stronger effect = lower value
Outline: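 Tumour cells grown as complex spheroids with HUVEC endothelial cells and mesenchymal stem cells, treated with RAS pathway inhibitor combinations. Each agent spans half-log steps from near clinical Cmax, or 10 microM where Cmax is unknown.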

[1] = second compound 0.000949 µM, first compound 0.0316 µM
[2] = second compound 0.000949 µM, first compound 0.1 µM
[3] = second compound 0.000949 µM, first compound 0.316 µM
[4] = second compound 0.000949 µM, first compound 1 µM
[5] = second compound 0.000949 µM, first compound 3.16 µM
[6] = second compound 0.000949 µM, first compound 10 µM
[7] = second compound 0.003 µM, first compound 0.0316 µM
[8] = second compound 0.003 µM, first compound 0.1 µM
[9] = second compound 0.003 µM, first compound 0.316 µM
[10] = second compound 0.003 µM, first compound 1 µM
[11] = second compound 0.003 µM, first compound 3.16 µM
[12] = second compound 0.003 µM, first compound 10 µM
[13] = second compound 0.00949 µM, first compound 0.0316 µM
[14] = second compound 0.00949 µM, first compound 0.1 µM
[15] = second compound 0.00949 µM, first compound 0.316 µM
[16] = second compound 0.00949 µM, first compound 1 µM
[17] = second compound 0.00949 µM, first compound 3.16 µM
[18] = second compound 0.00949 µM, first compound 10 µM
[19] = second compound 0.03 µM, first compound 0.0316 µM
[20] = second compound 0.03 µM, first compound 0.1 µM
[21] = second compound 0.03 µM, first compound 0.316 µM
[22] = second compound 0.03 µM, first compound 1 µM
[23] = second compound 0.03 µM, first compound 3.16 µM
[24] = second compound 0.03 µM, first compound 10 µM
[25] = second compound 0.0949 µM, first compound 0.0316 µM
[26] = second compound 0.0949 µM, first compound 0.1 µM
[27] = second compound 0.0949 µM, first compound 0.316 µM
[28] = second compound 0.0949 µM, first compound 1 µM
[29] = second compound 0.0949 µM, first compound 3.16 µM
[30] = second compound 0.0949 µM, first compound 10 µM
[31] = second compound 0.3 µM, first compound 0.0316 µM
[32] = second compound 0.3 µM, first compound 0.1 µM
[33] = second compound 0.3 µM, first compound 0.316 µM
[34] = second compound 0.3 µM, first compound 1 µM
[35] = second compound 0.3 µM, first compound 3.16 µM
[36] = second compound 0.3 µM, first compound 10 µM
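Also: spheroids exposed to the agents for seven days before the readout.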

Work on `CC(C)NCC(C(=O)N1CCN(c2ncnc3c2C(C)CC3O)CC1)c1ccc(Cl)cc1` (stereo unspecified) + CCn1c(-c2cc(N3CCN(C)CC3)cnc2C(C)OC)c2c3cc(ccc31)-c1csc(n1)CC(NC(=O)C1CC1C)C(=O)N1CCCC(N1)C(=O)OCC(C)(C)C2 yielded an IC50 (second compound 0.000949 µM) of 649 nM, an IC50 (second compound 0.003 µM) of 190 nM and an IC50 (second compound 0.00949 µM) of less than 31.6 nM. For the same compound, the IC50 (second compound 0.03 µM) was less than 31.6 nM, the IC50 (second compound 0.0949 µM) was less than 31.6 nM and the IC50 (second compound 0.3 µM) was less than 31.6 nM. The viability, T/C [1] was 79.2%, the viability, T/C [2] was 89.7% and the viability, T/C [3] was 61.1%. For the same compound, the viability, T/C [4] was 43.9%, the viability, T/C [5] was 26.6% and the viability, T/C [6] was 26.9%. The viability, T/C [7] was 72.5%, the viability, T/C [8] was 52.9% and the viability, T/C [9] was 50.8%. It also gave a viability, T/C [10] of 29.6%, a viability, T/C [11] of 26.6% and a viability, T/C [12] of 20.4%. For the same compound, the viability, T/C [13] was 49.7%, the viability, T/C [14] was 39.6% and the viability, T/C [15] was 38.4%. It also gave a viability, T/C [16] of 28.8%, a viability, T/C [17] of 16.4% and a viability, T/C [18] of 14.4%. The viability, T/C [19] was 34.2%, the viability, T/C [20] was 36.5% and the viability, T/C [21] was 23.9%. It also gave a viability, T/C [22] of 18.6%, a viability, T/C [23] of 10.3% and a viability, T/C [24] of 9.69%. The viability, T/C [25] was 27.3%, the viability, T/C [26] was 23.8% and the viability, T/C [27] was 18.5%. It also gave a viability, T/C [28] of 13.7%, a viability, T/C [29] of 9.85% and a viability, T/C [30] of 5.97%. For the same compound, the viability, T/C [31] was 24%, the viability, T/C [32] was 20.4% and the viability, T/C [33] was 20.9%. It also gave a viability, T/C [34] of 14.7%, a viability, T/C [35] of 8.46% and a viability, T/C [36] of 5.88%.

`CC(Nc1ccc2c(c1)OCCn1cc(N3C(=O)OCC3C(F)F)nc1-2)C(N)=O` (stereo unspecified) + CCn1c(-c2cc(N3CCN(C)CC3)cnc2C(C)OC)c2c3cc(ccc31)-c1csc(n1)CC(NC(=O)C1CC1C)C(=O)N1CCCC(N1)C(=O)OCC(C)(C)C2 gave an IC50 (second compound 0.000949 µM) of 160 nM, an IC50 (second compound 0.003 µM) of 152 nM and an IC50 (second compound 0.00949 µM) of less than 31.6 nM. It also gave an IC50 (second compound 0.03 µM) of less than 31.6 nM, an IC50 (second compound 0.0949 µM) of less than 31.6 nM and an IC50 (second compound 0.3 µM) of less than 31.6 nM. The viability, T/C [1] was 72.8%, the viability, T/C [2] was 57.9% and the viability, T/C [3] was 37.4%. It also gave a viability, T/C [4] of 33.5%, a viability, T/C [5] of 24.9% and a viability, T/C [6] of 18.5%. The viability, T/C [7] was 60%, the viability, T/C [8] was 56.5% and the viability, T/C [9] was 38.9%. The viability, T/C [10] was 35.6%, the viability, T/C [11] was 17.2% and the viability, T/C [12] was 13.2%. For the same compound, the viability, T/C [13] was 37.8%, the viability, T/C [14] was 32.8% and the viability, T/C [15] was 29.7%. For the same compound, the viability, T/C [16] was 19.1%, the viability, T/C [17] was 16.3% and the viability, T/C [18] was 10.7%. The viability, T/C [19] was 34.5%, the viability, T/C [20] was 27.7% and the viability, T/C [21] was 21.2%. It also gave a viability, T/C [22] of 12%, a viability, T/C [23] of 11.2% and a viability, T/C [24] of 6.45%. It also gave a viability, T/C [25] of 27.4%, a viability, T/C [26] of 19.4% and a viability, T/C [27] of 12%. The viability, T/C [28] was 13%, the viability, T/C [29] was 8.97% and the viability, T/C [30] was 5.82%. The viability, T/C [31] was 20.6%, the viability, T/C [32] was 14.2% and the viability, T/C [33] was 12.9%. For the same compound, the viability, T/C [34] was 8.03%, the viability, T/C [35] was 7.08% and the viability, T/C [36] was 4.92%.

`O=C(c1ccc(F)c(F)c1Nc1ccc(I)cc1F)N1CC(O)([C@@H]2CCCCN2)C1` + CCn1c(-c2cc(N3CCN(C)CC3)cnc2C(C)OC)c2c3cc(ccc31)-c1csc(n1)CC(NC(=O)C1CC1C)C(=O)N1CCCC(N1)C(=O)OCC(C)(C)C2 showed an IC50 (second compound 0.000949 µM) of 43.1 nM, an IC50 (second compound 0.003 µM) of 18 nM and an IC50 (second compound 0.00949 µM) of 7.57 nM. For the same compound, the IC50 (second compound 0.03 µM) was less than 3.16 nM, the IC50 (second compound 0.0949 µM) was less than 3.16 nM and the IC50 (second compound 0.3 µM) was less than 3.16 nM. For the same compound, the viability, T/C (second compound 0.000949 µM, first compound 0.00316 µM) was 77.8%, the viability, T/C (second compound 0.000949 µM, first compound 0.01 µM) was 73.4% and the viability, T/C [1] was 48.3%. It also gave a viability, T/C [2] of 43.1%, a viability, T/C [3] of 14.6% and a viability, T/C [4] of 4.82%. It also gave a viability, T/C (second compound 0.003 µM, first compound 0.00316 µM) of 52.7%, a viability, T/C (second compound 0.003 µM, first compound 0.01 µM) of 54% and a viability, T/C [7] of 45.5%. It also gave a viability, T/C [8] of 34.8%, a viability, T/C [9] of 12% and a viability, T/C [10] of 4.41%. The viability, T/C (second compound 0.00949 µM, first compound 0.00316 µM) was 52.2%, the viability, T/C (second compound 0.00949 µM, first compound 0.01 µM) was 50.2% and the viability, T/C [13] was 34.1%. For the same compound, the viability, T/C [14] was 14.4%, the viability, T/C [15] was 7.76% and the viability, T/C [16] was 3.12%. It also gave a viability, T/C (second compound 0.03 µM, first compound 0.00316 µM) of 26.6%, a viability, T/C (second compound 0.03 µM, first compound 0.01 µM) of 16.9% and a viability, T/C [19] of 15.1%. For the same compound, the viability, T/C [20] was 9.74%, the viability, T/C [21] was 4.27% and the viability, T/C [22] was 3.44%. The viability, T/C (second compound 0.0949 µM, first compound 0.00316 µM) was 19.7%, the viability, T/C (second compound 0.0949 µM, first compound 0.01 µM) was 16.8% and the viability, T/C [25] was 12.1%. For the same compound, the viability, T/C [26] was 5.71%, the viability, T/C [27] was 3.46% and the viability, T/C [28] was 2.86%. It also gave a viability, T/C (second compound 0.3 µM, first compound 0.00316 µM) of 15.9%, a viability, T/C (second compound 0.3 µM, first compound 0.01 µM) of 15% and a viability, T/C [31] of 10.6%. It also gave a viability, T/C [32] of 4.53%, a viability, T/C [33] of 4.09% and a viability, T/C [34] of 1.86%.
